The text below walks through data of ChEMBL document CHEMBL3576818, “Structure-Activity Relationships of (+)-Naltrexone-Inspired Toll-like Receptor 4 (TLR4) Antagonists” (J Med Chem, 2015).

The nature of experiment [1]: Cytotoxicity against mouse BV2 cells assessed as reduction in viability by crystal violet staining method. The following applies: BV-2.
The target in a further experiment is T1, Toll-like receptor 4 (Mus musculus, UniProt Q9QUK6).
T1 sequence (Q9QUK6 whole entry): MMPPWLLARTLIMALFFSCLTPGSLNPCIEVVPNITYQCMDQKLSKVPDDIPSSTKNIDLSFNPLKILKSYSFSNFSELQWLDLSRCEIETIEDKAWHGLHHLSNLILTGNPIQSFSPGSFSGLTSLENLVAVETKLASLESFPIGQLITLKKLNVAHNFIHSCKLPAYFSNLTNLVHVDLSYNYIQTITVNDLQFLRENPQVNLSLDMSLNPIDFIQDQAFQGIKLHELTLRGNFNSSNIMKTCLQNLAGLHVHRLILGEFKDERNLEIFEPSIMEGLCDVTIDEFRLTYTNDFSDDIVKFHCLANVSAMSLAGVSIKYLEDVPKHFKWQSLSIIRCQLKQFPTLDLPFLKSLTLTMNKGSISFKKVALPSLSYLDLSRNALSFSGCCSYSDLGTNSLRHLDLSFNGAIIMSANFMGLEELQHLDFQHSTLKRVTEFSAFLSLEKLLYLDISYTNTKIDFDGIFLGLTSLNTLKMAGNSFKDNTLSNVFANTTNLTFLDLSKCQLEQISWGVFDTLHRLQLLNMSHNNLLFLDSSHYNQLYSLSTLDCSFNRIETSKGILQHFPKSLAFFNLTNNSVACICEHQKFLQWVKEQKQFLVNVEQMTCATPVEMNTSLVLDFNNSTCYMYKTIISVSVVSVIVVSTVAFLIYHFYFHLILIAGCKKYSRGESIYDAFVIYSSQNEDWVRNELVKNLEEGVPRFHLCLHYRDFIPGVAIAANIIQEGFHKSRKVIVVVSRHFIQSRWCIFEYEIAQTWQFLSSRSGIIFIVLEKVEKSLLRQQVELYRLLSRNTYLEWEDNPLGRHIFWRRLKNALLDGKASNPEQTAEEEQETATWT

Description for Toll-like receptor 4: Antagonist activity against TLR4 in mouse BV2 cells assessed as inhibition of LPS-induced nitric oxide production incubated for 24 hrs by 2,3-diaminonaphthalene dye based assay

On to `O=C1CC[C@]2(O)[C@@H]3Cc4ccc(O)c5c4[C@]2(CCN3CCCCCc2ccccc2)[C@@H]1O5`, for which the half-inhibitory concentration (IC50) in experiment [1] came out at 26.8 µM; against Toll-like receptor 4, 1.7 µM. Turning to `O=C1CC[C@]2(O)[C@@H]3Cc4ccc(O)c5c4[C@]2(CCN3CC2CC2)[C@@H]1O5`, the results for the IC50 (in experiment [1]; against Toll-like receptor 4) were more than 400 µM and 106 µM, respectively. The corresponding values for `O=C1CC[C@]2(O)CN(CC3CC3)CC[C@]23c2cccc(O)c2O[C@H]13` are more than 400 µM and 76.2 µM.

In the case of `CCCCCCN1CC[C@@]23CCCC[C@]2(O)[C@@H]1Cc1ccc(O)cc13`, inhibition at Toll-like receptor 4 was half-maximal at 5.2 µM (IC50). Regarding `Oc1ccc2c3c1O[C@@H]1[C@@H](O)CC[C@]4(O)[C@H](C2)N(CC2CC2)CC[C@@]314`, the IC50 is more than 400 µM in experiment [1] and 243 µM on Toll-like receptor 4. The corresponding values for `Oc1ccc2c3c1O[C@@H]1[C@H](O)CC[C@]4(O)[C@H](C2)N(CC2CC2)CC[C@@]314` are more than 400 µM and 144 µM. For `O=C1CC[C@]2(O)[C@@H]3Cc4ccc(O)cc4[C@]2(CCN3CC2CC2)C1` the same measures were more than 400 µM and 118 µM. For `Oc1ccc2c(c1)[C@]13CCCC[C@]1(O)[C@H](C2)N(CC1CC1)CC3` the same measures were 366 µM and 48.9 µM. Consider `CCCCCCN1CC[C@@]23C=CCC[C@]2(O)[C@@H]1Cc1ccc(O)cc13`, for which the figures for the 50% inhibitory concentration (IC50) (in experiment [1]; on Toll-like receptor 4) were 155 µM and 22.5 µM, respectively. The corresponding values for `CCCCN1CC[C@@]23c4c5ccc(O)c4O[C@@H]2C(=O)CC[C@]3(O)[C@@H]1C5` are more than 200 µM and 24.8 µM. Turning to `CCCCCN1CC[C@@]23c4c5ccc(O)c4O[C@@H]2C(=O)CC[C@]3(O)[C@@H]1C5`, the IC50 was more than 200 µM in experiment [1] and 7.5 µM against Toll-like receptor 4.

`CCCCCCN1CC[C@@]23c4c5ccc(O)c4O[C@@H]2C(=O)CC[C@]3(O)[C@@H]1C5`: the figures for the IC50 (in experiment [1]; against Toll-like receptor 4) were 121 µM and 6.7 µM, respectively. The corresponding values for `CCCCCCCN1CC[C@@]23c4c5ccc(O)c4O[C@@H]2C(=O)CC[C@]3(O)[C@@H]1C5` are 68.5 µM and 3 µM. As to `CCCCCCCCN1CC[C@@]23c4c5ccc(O)c4O[C@@H]2C(=O)CC[C@]3(O)[C@@H]1C5`, 1.7 µM corresponded to half-maximal inhibition against Toll-like receptor 4 (IC50). Turning to `O=C1CC[C@]2(O)[C@@H]3Cc4ccc(O)c5c4[C@]2(CCN3CCCCc2ccccc2)[C@@H]1O5`, the IC50 in experiment [1] was determined as 37.1 µM; on Toll-like receptor 4 it was 1.2 µM. For `O=C1CC[C@]2(O)[C@@H]3Cc4ccc(O)c5c4[C@]2(CCN3CCCc2ccccc2)[C@@H]1O5` the same measures were 69.3 µM and 1.4 µM. The corresponding values for `O=C1CC[C@]2(O)[C@@H]3Cc4ccc(O)c5c4[C@]2(CCN3CCc2ccccc2)[C@@H]1O5` are 141 µM and 1.4 µM.

On to `O=C1CC[C@]2(O)[C@@H]3Cc4ccc(O)c5c4[C@]2(CCN3CCc2ccccc2F)[C@@H]1O5`, for which the IC50 in experiment [1] is 65.7 µM; at Toll-like receptor 4, 1.8 µM. As to `COc1ccc2c3c1O[C@@H]1C(=O)CC[C@]4(O)C(C2)N(CCc2ccccc2)CC[C@@]314`, the IC50 against Toll-like receptor 4 was found to be 5.7 µM.

One may read the IC50 as the point on the concentration scale where inhibition reaches its midpoint.
